Measured values taken from patent US12731806B2, “Electrolyte regeneration for organic redox flow batteries based on water-soluble phenazine-based compounds” (CMBLU Energy AG, priority 2020, dated 2026).
Values after ≈ are worked out from the molar mass of the structure shown.

Legend:
[1] = physchem; conditions: aqueous buffer
[2] = Solubility of DHPS and its degradation species

solubility [1] [mM] | SMILES | solubility in a DHPS solution ([2]; DHPS solution up to 0.5 M) | solubility ([2]; aqueous buffer) [mM]
200 to 400 (≈ 42.4 to 84.9 mg/mL) | Oc1cc2nc3ccccc3nc2cc1O [DHP, Dihydroxyphenazine] | – | –
1400 to 1600 (≈ 409 to 468 mg/mL) | O=S(=O)(O)c1ccc2nc3cc(O)c(O)cc3nc2c1 [DHPS, 7,8-Dihydroxyphenazinesulfonic acid] | – | –
– | Oc1ccc2nc3ccccc3nc2c1 [MHP, Monohydroxyphenazine] | does not change significantly | 100 to 300 (≈ 19.6 to 58.9 mg/mL)
